What was measured:
[1] = particle size distribution analysis (volume distribution) by laser diffraction of aqueous dispersion; assay type: physicochemical
Excerpt: The D10, D50 and D90 represent the median or the 10th, 50th, and the 90th percentile of the particle size distribution (volume distribution), respectively. That is, the D50 (D10/D90) is a value on the distribution such that 50% (10%/90%) of the particles have a particle size of this value or less. The volume averaged particle size distribution may be measured with an aqueous dispersion of the M^n+(HDO)n by techniques known to the skilled artisan, e.g. by laser diffraction techniques.
Furthermore, a particle size distribution analysis (volume distribution) was performed using a conventional laser diffraction apparatus (Mastersizer® 2000, Fa. Malvern Instruments). For the measurement, 1 g of Cu(HDO)2 was dispersed in 100 ml of water sample and 1 ml of a solution (1% by weight) of a nonionic surfactant (polyethylene glycole p-(1,1,3,3-tetramethylbutyl)-phenyl ether, around 9-10 ethylene oxide groups). […]

[2] = cited from earlier work
[3] = dispersion time 1 min, 1 g in 100 ml water with nonionic surfactant

| SMILES | D10 value ([1]; after 10 min dispersion) [μm] | D50 ([1]; after 10 min dispersion) [μm] | D90 ([1]; after 10 min dispersion) [μm] | D10 value ([1]; after 30 min dispersion) [μm] | D50 ([1]; after 30 min dispersion) [μm] | D90 ([1]; after 30 min dispersion) [μm] | D10 value [1, 3] [μm] | D50 [1, 3] [μm] | D90 [1, 3] [μm] | solubility in water [2] |
| --- | --- | --- | --- | --- | --- | --- | --- | --- | --- | --- |
| [Cu+2].[O-]/N=[N+](\[O-])C1CCCCC1.[O-]/N=[N+](\[O-])C1CCCCC1 [Comparative Example, reference compound] | 2 | 15 | 79 | 2 | 12 | 53 | 3 | 23 | 306 | – |
| O=NN([O-])C1CCCCC1.O=NN([O-])C1CCCCC1.[Cu+2] [Cu(HDO)2, Cu-salt of N′-hydroxy-N-cyclohexyldiazenium oxide] | 14 | 45 | 108 | 12 | 41 | 93 | 16 | 49 | 140 | around 30 ppm |

From patent US20110257436A1, “PROCESS FOR THE MANUFACTURE OF EASILY DISPERSIBLE, SOLID N'-HYDROXY-N-CYCLOHEXYL-DIAZENIUM OXIDE SALTS” (BASF SE, priority 2008, published 2011)
